The record followed here is US20220218708A1, “METHODS FOR TREATING SMARCB1 DEFICIENT CANCER OR PAZOPANIB RESISTANT CANCER” (The Institute of Cancer Research:Royal Cancer Hospital, priority 2016, published 2022).

A word on the IC50: it is the concentration that inhibits the measured activity by half.

Where only a bound is given, the exact number is not on record here.

Common to all, as to assay type: cell-based
In one test the test system is RUCH-3 cells. The test can be described thus: Cell viability (WST-1) dose response. To be noted: 72 hours. As to the method:
(§1) Cells were cultured in DMEM (A204, G402, Saos2, U2OS, HT1080, SW684, SW872, SW982, Hs729T, RUCH-3, T9195 and AN3CA), RPMI (RMS-YM and SJSA-1) or McCoy5A (MES-SA) media supplemented with 10% FBS/2 mM glutamine/100 units/ml penicillin/[…] streptomycin in 95% air/5% CO2 atmosphere at 37° C. For SILAC experiments, A204 cells and resistant sublines were cultured in SILAC DMEM media (Thermo Fisher Scientific) supplemented with light lysine and arginine (ROKO) (Sigma) and heavy lysine and arginine (R10K8) (Goss Scientific) respectively.
(§2) 2000 cells/well were seeded in a 96-well plate and treated with inhibitors at the indicated dose and combinations for 24 h for apoptosis measurement by Caspase-Glo 3/7 Assay (Promega), or for 72 hours in cell viability measurements by WST-1 (Abcam), following the manufacturer's recommendations. IC50 data were generated from dose-response curves fitted using a four-parameter regression fit in PRISM 5 software (GraphPad).

A further test relates to T91-95 cells. The test can be described thus: Cell viability (WST-1) dose response. The following applies: 72 hours. As to the method:
as §1, §2
For orientation: Tetrazolium dyes change colour on reduction, which living cells bring about.

Another test relates to SW684 cells. In words: Cell viability (WST-1) dose response. The following applies: Homo sapiens, 72 hours. As to the method: as §1, §2
Another test relates to Hs729T cells. The test can be described thus: Cell viability (WST-1) dose response. The following applies: 72 hours. As to the method: as §1, §2
The subject of another test is RMS-YM cells. In words: Cell viability (WST-1) dose response. To be noted: 72 hours. As to the method: as §1, §2
The test system of a further test is SJSA-1 cells. The test can be described thus: Cell viability (WST-1) dose response. The following applies: Homo sapiens, 72 hours. As to the method: as §1, §2
For another test, the system named is MES-SA cells. The test can be described thus: Cell viability (WST-1) dose response. The following applies: Homo sapiens, 72 hours. As to the method: as §1, §2
For the next test, the system named is SW872 cells. In words: Cell viability (WST-1) dose response. The following applies: Homo sapiens, 72 hours. As to the method: as §1, §2
Another test deals with SW982 cells. The test can be described thus: Cell viability (WST-1) dose response. To be noted: Homo sapiens, 72 hours. As to the method:
as §1, §2

The next test deals with SAOS2 cells. The test can be described thus: Cell viability (WST-1) dose response. The following applies: Homo sapiens, SAOS-2, 72 hours. As to the method: as §1, §2
The test system of a further test is U2OS cells. In words: Cell viability (WST-1) dose response. The following applies: Homo sapiens, 72 hours. As to the method: as §1, §2
A further test relates to HT1080 cells. In words: Cell viability (WST-1) dose response. To be noted: Homo sapiens, HT-1080, 72 hours. As to the method: as §1, §2
Test [1] deals with Dasatinib resistant A204 cells (DasR). In words: Cell viability in acquired resistant subline. To be noted: Homo sapiens. As to the method:
(§3) Cells were grown initially in DMEM media containing drug concentration of 500 nM. The drug was incremented when the cells had proliferated to near confluency alongside minimal visible cell death. Drug concentration was incremented from 2 μM, 3 μM and 5 μM in a stepwise manner over 6 weeks. A final drug concentration of 5 μM was maintained in resistant cells. Media and drug were replenished twice weekly.
as §2

Test [2] has as its system Sunitinib resistant A204 cells (SunR). In words: Cell viability in acquired resistant subline. The following applies: Homo sapiens. As to the method:
as §3, §2

The test system of test [3] is Pazopanib resistant A204 cells (PazR). In words: Cell viability in acquired resistant subline. To be noted: Homo sapiens. As to the method: as §3, §2
The subject of test [4] is A204 cells (parental, MRT cell line). In words: Cell viability (WST-1) dose response. The following applies: for IC50: Homo sapiens, cell viability; for effect on cell viability: A204 cells, dose response. As to the method:
(§4) For SILAC experiments, A204 cells and resistant sublines were cultured in SILAC DMEM media (Thermo Fisher Scientific) supplemented with light lysine and arginine (ROKO) (Sigma) and heavy lysine and arginine (R10K8) (Goss Scientific) respectively.
as §2

The subject of test [5] is G402 cells (MRT cell line). The test can be described thus: Cell viability (WST-1) dose response. The following applies: for IC50: Homo sapiens, G-402, G402, cell viability, 72 hours; for effect on cell viability: G402 cells, dose response. As to the method:
as §4, §2

Another test deals with PazR cells. The test can be described thus: Annexin V staining, automated imaging. As to the method:
as §3
Details for annexin V staining and siRNA transfections are as follows. For Annexin V staining, 3000 cells/well were seeded into 96-well CellCarrier plates (Perkin Elmer). 24 h after seeding, drugs were added and incubated for an additional 48 h. FITC-Annexin V (BD Biosciences) and Hoechst 33342 (Tocris) diluted in 10× annexin binding buffer (0.1M HEPES, 1.4M NaCl, 25 mM CaCl2) was added and incubated at 37° C. for 15 minutes. Plates were imaged using an Operetta high-content imager (Perkin Elmer). Images were analysed using Harmony software (Perkin Elmer), and annexin positivity defined as number of annexin-FITC-positive cells relative to total number of Hoechst-positive nuclei. The interaction between drugs was analysed by the Chou and Talalay median effect principle as described (Todd et al., 2014). siRNA transfections were performed as follows, 2000 cells/well were reverse transfected in 96-well plates with SMARTpool siRNAs (Dharmacon) using Lullaby reagent (Oz Biosciences). Where indicated, cells were treated with vehicle or drug 24 h post transfection. Apoptosis and cell viability were measured using Caspase 3/7 Glo and Cell Titre Glo (Promega), respectively, 72-96 h post transfection according to manufacturer's instructions and normalised to cells transfected with a non-targeting siRNA pool.

A further test concerns AKT phosphorylation. The test can be described thus: Immunoblot of AKT phosphorylation. The following applies: MRT cells; drug treatment for 1 hour (FIG. 3H). As to the method: (§5) After the indicated treatments, cells were lysed in RIPA lysis buffer at 4° C. Lysates were loaded onto SDS-PAGE gels followed by blotting onto PVDF membranes.
(§6) Details of antibodies, immunoprecipitation and immunofluorescence analyses are as follows. For immunoblotting, cells were lysed in RIPA lysis buffer supplemented with protease and phosphatase inhibitors (Thermo Pierce) at 4° C. Lysates were loaded onto SDS-PAGE gels followed by blotting onto PVDF membranes as described (Iwai et al., 2013). Blots were probed with primary antibodies followed by corresponding horseradish peroxidase-conjugated secondary antibodies. Primary antibodies include anti-PDGFRα #3174, CST; anti-pAKT (S473) #4058, CST; anti-AKT #4691, CST; anti-pERK-T202/Y204 #4370, CST; anti-ERK #9102, CST; anti-FGFR1 #76464, abcam; anti-BAF47 (SMARCB1) #61211, BD; anti-TFR #13-6890, ThermoFisherScientific; anti-pY1000 #8954, CST and anti-α-Tubulin #T5168, Sigma. Secondary antibodies include Polyclonal Goat Anti-Rabbit HRP #P0448, Dako and Anti-Mouse HRP #G32-62G-1000, Signalchem. Immunoreactive bands were visualized by chemiluminescence (Amersham) and the blots were exposed to x-ray XAR film (Kodak).
Background: A western blot detects proteins with antibodies after separation by electrophoresis.

The test system of the next test is ERK1/2 phosphorylation. In words: Immunoblot of ERK1/2 phosphorylation. The following applies: MRT cells; drug treatment for 1 hour (FIG. 3H). As to the method:
as §5, §6

Test [6] deals with MRT cells (A204 and G402). The test can be described thus: Apoptosis by Caspase-Glo 3/7 assay. The following applies: caspase 3/7 activity. As to the method: as §2
The next test concerns the target T1, PDGFRα phosphorylation (Homo sapiens, UniProt P16234).
T1 construct: Immunoprecipitation of PDGFRα followed by immunoblotting with phosphotyrosine-specific antibody (PY1000) in A204 cells; endogenous in cells; host or cells: A204 cells
In words: Immunoprecipitation of PDGFRα and phosphotyrosine immunoblot. To be noted: A204 cells; 1 μM for 1 hour.

[7] abbreviates: A204 Pazopanib resistant subline, cell viability, Table S2.
The mark [8] stands for this setting: 72 h, Pazopanib resistant A204 cell line, single and combination drug treatment, Table S3.

T1 sequence (P16234 24-1089): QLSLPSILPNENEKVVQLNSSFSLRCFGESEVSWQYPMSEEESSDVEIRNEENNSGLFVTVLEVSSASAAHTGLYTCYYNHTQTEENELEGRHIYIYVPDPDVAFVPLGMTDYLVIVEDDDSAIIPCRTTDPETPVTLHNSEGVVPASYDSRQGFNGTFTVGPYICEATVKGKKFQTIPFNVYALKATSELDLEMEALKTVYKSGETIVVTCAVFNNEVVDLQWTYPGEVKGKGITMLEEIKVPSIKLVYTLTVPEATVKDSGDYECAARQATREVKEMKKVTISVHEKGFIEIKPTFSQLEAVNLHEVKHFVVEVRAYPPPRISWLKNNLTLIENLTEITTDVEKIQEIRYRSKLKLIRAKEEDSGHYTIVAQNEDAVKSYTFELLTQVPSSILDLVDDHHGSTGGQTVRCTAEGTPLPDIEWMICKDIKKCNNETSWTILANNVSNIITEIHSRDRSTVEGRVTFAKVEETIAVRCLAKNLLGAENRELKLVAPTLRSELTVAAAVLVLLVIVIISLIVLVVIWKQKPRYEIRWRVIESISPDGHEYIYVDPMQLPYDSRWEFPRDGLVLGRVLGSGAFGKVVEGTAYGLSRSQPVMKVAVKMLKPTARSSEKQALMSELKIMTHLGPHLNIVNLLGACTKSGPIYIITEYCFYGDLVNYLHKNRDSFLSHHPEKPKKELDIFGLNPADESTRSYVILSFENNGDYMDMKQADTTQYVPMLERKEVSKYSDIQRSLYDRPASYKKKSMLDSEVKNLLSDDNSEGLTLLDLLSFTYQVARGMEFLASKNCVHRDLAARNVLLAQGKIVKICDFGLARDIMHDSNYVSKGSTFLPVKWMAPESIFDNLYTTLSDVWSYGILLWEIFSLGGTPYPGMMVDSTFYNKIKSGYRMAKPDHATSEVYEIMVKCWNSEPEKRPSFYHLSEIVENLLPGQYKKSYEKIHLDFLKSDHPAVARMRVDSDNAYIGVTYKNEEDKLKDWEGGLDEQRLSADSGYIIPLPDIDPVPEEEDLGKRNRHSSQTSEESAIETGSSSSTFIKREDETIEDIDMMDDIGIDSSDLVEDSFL
Method for PDGFRα phosphorylation: For immunoprecipitation, cells were lysed in RIPA lysis buffer (contained 1% Triton) supplemented with protease and phosphatase inhibitors (Thermo Pierce) at 4° C. After microcentrifugation at 2,000 rpm. for 10 min, 200 μg of lysate was diluted in 200 ul lysis buffer. […] Protein G plus agarose beads were added and incubated for three hours at 4° C. to collect immune complexes, washed five times with lysis buffer and eluted in sample buffer. Proteins were resolved by SDS-PAGE, transferred to PVDF membrane and immunoblotting was performed as described above.

In the case of `CCN(CC)CCNC(=O)c1c(C)[nH]c(/C=C2\C(=O)Nc3ccc(F)cc32)c1C` [Sunitinib, sunitinib], the IC50 in the test on RUCH-3 cells, with T91-95 cells, with SW684 cells, in the test with Hs729T cells, with RMS-YM cells and in the test with SJSA-1 cells was more than 10 µM each time. Also, the IC50 in the test with MES-SA cells was more than 10 µM; in the test with SW872 cells, more than 10 µM; with SW982 cells, 0.582 µM; in the test with SAOS2 cells it was 4.57 µM; in the test with U2OS cells, more than 10 µM; with HT1080 cells, more than 10 µM. The IC50 is 5.01 µM in test [1]; more than 10 µM in [2]; more than 10 µM in test [3] (setting [7]); 0.0363 µM in test [4] (A204, 72 hours, Table S1); 0.0363 µM in [4] (A204 Parental, Table S2); 0.0369 µM in test [5].
In the case of AZD4547, the “effect on cell viability” value in test [4] and in [5] was “ineffective” throughout.
`Cc1nc(Nc2ncc(C(=O)Nc3c(C)cccc3Cl)s2)cc(N2CCN(CCO)CC2)n1` [Dasatinib, dasatinib]: the IC50 with RUCH-3 cells is more than 10 µM; in the test on T91-95 cells, more than 10 µM; with SW684 cells it was 0.0624 µM; in the test on Hs729T cells, more than 10 µM; in the test on RMS-YM cells, more than 10 µM; with SJSA-1 cells, more than 10 µM. Also, the IC50 in the test on MES-SA cells is more than 10 µM; in the test with SW872 cells it was 1.04 µM; with SW982 cells, 0.188 µM; in the test on SAOS2 cells, 1.15 µM; in the test with U2OS cells, more than 10 µM; with HT1080 cells, more than 10 µM. In addition, the IC50 in test [1] was more than 10 µM; in test [2], more than 10 µM; in test [3] (setting [7]), more than 10 µM; in test [4] (A204, 72 hours, Table S1), 0.0418 µM; in test [4] (A204 Parental, Table S2), 0.0418 µM; in [5], 0.0623 µM.
On to `Cc1ccc(C(=O)Nc2ccc(CN3CCN(C)CC3)c(C(F)(F)F)c2)cc1C#Cc1cnc2cccnn12` [Ponatinib, 3-(2-imidazo[1,2-b]pyridazin-3-ylethynyl)-4-methyl-N-[4-[(4-methyl-1-piperazinyl)methyl]-3-(trifluoromethyl)phenyl]-benzamide], for which the “proportion of apoptotic cells compared to vehicle control” value in the test on PazR cells is “significant increase”. For the same molecule, the “AKT phosphorylation” value in the test on AKT phosphorylation is “suppression”. The “ERK1/2 phosphorylation” value in the test on ERK1/2 phosphorylation was “suppression”. The “apoptosis” value in test [6] is recorded as “enhanced apoptosis”. The IC50 in test [3] (setting [8]) was 0.272 µM. The “effect on cell viability” value in [4] and in [5] was “sensitive” throughout.
Regarding `CCN1CCN(c2ccc(Nc3cc(N(C)C(=O)Nc4c(Cl)c(OC)cc(OC)c4Cl)ncn3)cc2)CC1` [BGJ398], the “proportion of apoptotic cells compared to vehicle control” value in the test with PazR cells is on record as “significant increase”. The “AKT phosphorylation” value with AKT phosphorylation is recorded as “no effect”. Further, the “ERK1/2 phosphorylation” value with ERK1/2 phosphorylation is recorded as “decreased”. In addition, in [3] (setting [8]), the IC50 amounted to 0.247 µM. For the same molecule, the “effect on cell viability” value in test [4] is recorded as “reduced viability”. Moreover, the “PDGFRα phosphorylation” value on PDGFRα phosphorylation is “no effects”.
As for `Cc1ccc(Nc2nccc(N(C)c3ccc4c(C)n(C)nc4c3)n2)cc1S(N)(=O)=O` [Pazopanib, pazopanib], the “proportion of apoptotic cells compared to vehicle control” value in the test with PazR cells was “no effect”. The IC50 in the test on RUCH-3 cells, in the test with T91-95 cells, in the test with SW684 cells, in the test on Hs729T cells, with RMS-YM cells and in the test on SJSA-1 cells was more than 10 µM each time. The IC50 with MES-SA cells, with SW872 cells, with SW982 cells, with SAOS2 cells, with U2OS cells and in the test with HT1080 cells was more than 10 µM in each case. For the same molecule, the IC50 in test [1] was more than 10 µM; in [2] it was more than 10 µM; in [3] (setting [8]), more than 10 µM; in test [3] (setting [7]), more than 10 µM; in test [4] (A204, 72 hours, Table S1), 0.219 µM; in test [4] (A204 Parental, Table S2), 0.245 µM. Also, in test [5], the 50% inhibitory concentration (IC50) was 0.238 µM.
